Legend:
Type in all cases: physicochemical
[1] = High-temperature stability (60° C.), content by HPLC peak area normalization
Description: (§1) Follow tests are performed for the amorphous bulk pharmaceutical chemical of embodiment 1 and the crystal form A prepared in embodiment 2: • (1) Light stability: the test sample is placed in an environment having a temperature of 25° C. and a light condition of 4500 Lux for 5 days and 10 days, respectively, to test the stability of the crystal form. Samples are collected at the same point at 5th and 10th day to measure content by HPLC peak area normalization method. […] Samples are collected at the same point at 5th and 10th day to measure content by HPLC peak area normalization method. […] Samples are collected at the same point at 5th and 10th day to measure content by HPLC peak area normalization method.

[2] = Light stability (25° C., 4500 Lux), content by HPLC peak area normalization
Description: as §1

[3] = High-humidity stability (75% RH, 40° C.), content by HPLC peak area normalization
Description: as §1

[4] = Hygroscopicity study by dynamic vapor sorption (DVS); conditions: 25° C.
Description: • Model: BRUKER D8 DISCOVER (BRUKER, Germany) • Method: Cu target Ka, voltage: 40 KV, current: 40 mA, test angle: 3-45°, scanning step: 0.02, exposure time: 0.2 S, slit width of light pipe: 1 mm, slit width of detector: 2.7 mm. X-Ray Single Crystal Diffractometer SXRD • Model: BRUKER D8 QUEST (BRUKER, Germany) • Method: Cu target, voltage: 40 KV, current: 30 mA Differential Scanning Calorimeter DSC • Model: TA 250 (TA Instruments, US) • Method: heating at a rate of 10° C./min. Thermal Gravimetric Analysis TGA • Model: TA 550 (TA Instruments, US); • Method: heating at a rate of 10° C./min. Dynamic Vapor Sorption DVS • Model: DVS intrinsic (SMS, British); • Method: 25° C., relative humidity is stepped up at a rate of 10% per step, and the judgment standard is change in moisture content is <0.002% over a 10-minute period. Light Incubator • Model: MGC-100 (Shanghai Yiheng Scientific Instrument Co., Ltd.) Ultrasound Equipment • Model: KQ-3200 (Shanghai Alloy Ultrasonic Equipment Co., Ltd.) Programmable Temperature and Humidity Chamber for Drug Stability • Model: CMA-100C (Shanghai Puhan Precision Equipment Co., Ltd.) […]

[5] = Hygroscopicity of compound of formula (I) prepared according to CN103819403B; conditions: within 10 min under a humidity of RH 45%
Description: The inventors of the present invention prepared the compound of formula (I) according to the preparation method as described in CN103819403B, and carried out analysis. […] Especially, the prepared compound of formula (I) was found easy to decompose in environment of high temperature or high humidity or under strong lights, causing rapid decrease in the content of active ingredients. […] Therefore, a strict management would be required during use of the compound of formula (I), rendering the compound unsuitable for use as a bulk pharmaceutical chemical.

Purity (%) after high-temperature stability test ([1]; 5 days) [%]	Purity (%) after high-temperature stability test ([1]; 10 days) [%]	Purity (%) after light stability test ([2]; 5 days) [%]	Purity (%) after light stability test ([2]; 10 days) [%]	Purity (%) after high-humidity stability test ([3]; 5 days) [%]	Purity (%) after high-humidity stability test ([3]; 10 days) [%]	weight increase due to moisture absorption ([4]; RH 0 to RH 90%, RH 10% per step, 10 min per step) [%]	weight increase because of hygroscopicity [5]	weight change in each step of 10 min ([4]; each RH 10% step of 10 min)	Compound
61.62	58.98	72.54	71.99	81.63	79.78	7			CN1Cc2c(Cl)cc(Cl)cc2[C@@H](c2cccc(S(=O)(=O)NCCOCCOCCNC(=O)NCCCCNC(=O)NCCOCCOCCNS(=O)(=O)c3cccc([C@@H]4CN(C)Cc5c(Cl)cc(Cl)cc54)c3)c2)C1 [amorphous bulk pharmaceutical chemical]
							up to 2%		CN1Cc2c(Cl)cc(Cl)cc2[C@@H](c2cccc(S(=O)(=O)NCCOCCOCCNC(=O)NCCCCNC(=O)NCCOCCOCCNS(=O)(=O)c3cccc([C@@H]4CN(C)Cc5c(Cl)cc(Cl)cc54)c3)c2)C1 [compound of formula (I)]
98.64	98.72	91.78	89.07	98.52	98.56			less than 0.02%	CN1Cc2c(Cl)cc(Cl)cc2[C@@H](c2cccc(S(=O)(=O)NCCOCCOCCNC(=O)NCCCCNC(=O)NCCOCCOCCNS(=O)(=O)c3cccc([C@@H]4CN(C)Cc5c(Cl)cc(Cl)cc54)c3)c2)C1 [crystal form A]

From patent US12122762B2, “Crystal form a of NHE3 inhibitor, preparation method therefor and application thereof” (SHENZHEN RENTAI PHARMATECH LTD., priority 2019, dated 2024)
